Molecular target: T1, human vasopressin V2 receptor subtype (Homo sapiens, UniProt P30518)
T1 construct: host or cells: CHO cells (pZeoSV vector)
Test: Vasopressin binding in Chinese Hamster Ovary cell membranes expressing human vasopressin V2 subtype receptors
Settings: 100 nM, CHO cell membranes, [3H]arginine vasopressin, values without parentheses
Description: Vasopressin Binding in Chinese Hamster Ovary Cell Membranes Expressing Human Vasopressin V2 Subtype Receptors
Chinese Hamster Ovary (CHO) cells stably transfected with the human V2 subtype receptors were obtained from M. Thibonnier, Case Western Reserve University School of Medicine, Cleveland, Ohio.
A. Passaging and Amplification of Cells:
The trypsin is removed by aspiration and the cells dislodged by tapping. Cell Culture medium (e.g. 30 mL for 1:30 split) is immediately added and mixed well to inactivate trypsin. 1 mL of detached cells is added to new culture flasks containing fresh Cell Culture medium (e.g. into 25 mL per T-150 flask), and mixed gently. The cells are incubated at 37° C. in 5% CO2. The medium is changed at 3 to 4 day interval (or as appropriate). […] All steps are done under sterile conditions. B. Membrane Preparation: The cells are washed twice gently with Hank's Balanced Salt solution (e.g. use 10 mL per T-150 flask). […] The contents are transferred to centrifuge tubes (50 mL) kept in ice bath. All subsequent steps are done at 4° C. The tubes are centrifuged at 300×g for 15 min (1380 rpm on SORVAL, Model RT6000D, using the rotor for 50 mL tubes). The supernatant is discarded and the cells suspended in homogenizing buffer (10 mM Tris-HCl containing 0.25 M sucrose and 1 mM EDTA, pH 7.4) ensuring that the volume of the buffer is about ten times the volume of the cell pellet. The cells are pooled into a centrifuge tube (50 mL) and homogenized with a Polytron at setting 6 for 10 sec. The homogenate is transferred into a Potter-Elvjehm homogenizer and homogenized with 3 strokes. The homogenate is centrifuged at 1500×g for 60 min at 4° C. (3100 rpm using SORVAL, model RT6000D, using the rotor for 50 mL tubes). The pellet is discarded. The supernatant is centrifuged at 100,000×g for 60 min. at 4° C. (Beckman L8-80M ultracentrifuge; spin at 37,500 rpm with rotor type 70 Ti for 50 mL tubes; 38,000 rpm with type 80Ti for 15 mL tubes; or 35,800 rpm with rotor type 45Ti). The supernantant is discarded and the pellet suspended in 3 to 4 mL of Tris buffer (50 mM TRIS-HCl, pH 7.4). The protein content is estimated by the Bradford or Lowry method. The volume of the membrane suspension is adjusted with the membrane buffer (50 mM Tris-HCl containing 0.1% BSA and 0.1 mM PMSF) to give 3.0 mg/mL (or as appropriate) of protein. The membranes are aliquoted and stored at −70° C. C. Radioligand Binding Assay: In wells of a 96-well format microtiter plate, is added 90, 110 or 130 μL (to make up a final volume of 200 μL) of assay buffer containing 50 mM of Tris-HCl (pH 7.4), […], 1 mg % aprotinin, 1 mg % leupeptin, 2 mg % 1,10-phenanthroline, 10 mg % trypsin inhibitor, and 0.1 mM PMSF. The inhibitors are added on the day of the experiment. The components are mixed at room temperature, and then kept in ice bath following adjustment of the pH to 7.4. […] For vasopressin and other peptide ligands 20 μL of 50% DMSO is added and the assay buffer volume is adjusted accordingly. To each well is added 50 μL of frozen membrane suspension thawed immediately prior to use and diluted in assay buffer to the required concentration (equivalent to 25 to 50 μg of protein/well as needed). 20 μL of 8 nM [^3H]arginine vasopressin ligand in the assay buffer, prepared just before use is added and incubated at room temperature for 60 min. shaking the plate on a mechanical shaker for the first 15 min. The incubation is stopped by rapid filtration of the plate contents followed by wash with ice-cold buffer (50 mM Tris-HCl, pH 7.4) using a cell harvester (Tomtek and Printed filtermat-B filter paper). The filter paper is thoroughly dried (7–12 min. in a microwave oven) and impregnated with MeltiLex B/H melt-on scintillation wax sheets and the radioactivity counted in a betaplate scintillation counter.

T1 sequence (P30518 whole entry): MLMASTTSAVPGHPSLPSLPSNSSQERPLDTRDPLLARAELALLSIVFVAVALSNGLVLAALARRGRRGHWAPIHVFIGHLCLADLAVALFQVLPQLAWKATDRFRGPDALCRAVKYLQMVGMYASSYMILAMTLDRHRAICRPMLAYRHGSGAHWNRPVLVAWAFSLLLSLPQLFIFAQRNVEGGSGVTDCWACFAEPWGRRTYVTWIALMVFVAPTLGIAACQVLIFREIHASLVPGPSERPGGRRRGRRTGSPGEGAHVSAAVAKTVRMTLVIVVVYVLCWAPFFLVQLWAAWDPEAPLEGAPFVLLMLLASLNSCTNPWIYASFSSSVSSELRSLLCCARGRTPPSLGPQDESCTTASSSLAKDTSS

SMILES | inhibition at 0.1 µM [%] | V2 % inhibition @ 100 nM [%]
COc1cc(C(=O)N2Cc3ccc(C(=O)N4CC[C@@H](N(C)C)C4)n3Cc3ccccc32)ccc1-c1ccccc1C [Example 281, [(3R)-3-(Dimethylamino)pyrrolidinyl]{10-[(2-methoxy-2′-methyl[1,1′-biphenyl]-4-yl)carbonyl]-10,11-dihydro-5H-pyrrolo[2,1-c][1,4]benzodiazepin-3-yl}methanone] | – | −9
COc1ccccc1-c1ccc(C(=O)N2Cc3ccc(C(=O)N4CCC[C@H]4CN4CCCC4)n3Cc3ccccc32)cc1OC [Example 269, {10-[(2,2′-Dimethoxy[1,1′-biphenyl]-4-yl)carbonyl]-10,11-dihydro-5H-pyrrolo[2,1-c][1,4]benzodiazepin-3-yl}[(2S)-2-(1-pyrrolidinylmethyl)pyrrolidinyl]methanone] | – | −19
Cc1ccccc1-c1ccc(C(=O)N2Cc3ccc(C(=O)N4CCC[C@H]4CN4CCCC4)n3Cc3ccccc32)cc1 [Example 264, {10-[(2′-Methyl[1,1′-biphenyl]-4-yl)carbonyl]-10,11-dihydro-5H-pyrrolo[2,1-c][1,4]benzodiazepin-3-yl}[(2S)-2-(1-pyrrolidinylmethyl)pyrrolidinyl]methanone] | – | 12
CN(C)[C@@H]1CCN(C(=O)c2ccc3n2Cc2ccccc2N(C(=O)c2ccc(-c4cccc5ccccc45)cc2Cl)C3)C1 [Example 277, {10-[2-Chloro-4-(1-naphthyl)benzoyl]-10,11-dihydro-5H-pyrrolo[2,1-c][1,4]benzodiazepin-3-yl}[(3R)-3-(dimethylamino)pyrrolidinyl]methanone] | – | 19
COc1cccc(-c2ccc(C(=O)N3Cc4ccc(C(=O)N(C)CCCN(C)C)n4Cc4ccccc43)cc2OC)c1 [Example 108, 10-[(2,3′-Dimethoxy[1,1′-biphenyl]-4-yl)carbonyl]-N-[3-(dimethylamino)propyl]-N-methyl-10,11-dihydro-5H-pyrrolo[2,1-c][1,4]benzodiazepine-3-carboxamide] | 8 | –
Cc1ccccc1-c1ccc(C(=O)N2Cc3ccc(C(=O)N4CCC(N5CCCCC5)CC4)n3Cc3ccccc32)cc1 [Example 115, {10-[(2′-Methyl[1,1′-biphenyl]-4-yl)carbonyl]-10,11-dihydro-5H-pyrrolo[2,1-c][1,4]benzodiazepin-3-yl}[4-(1-piperidinyl)-1-piperidinyl]methanone] | 12 | –
COc1ccccc1-c1ccc(C(=O)N2Cc3ccc(C(=O)N4CCC(N5CCCC5)CC4)n3Cc3ccccc32)cc1OC [Example 145, {10-[(2,2′-Dimethoxy[1,1′-biphenyl]4-yl)carbonyl]-10,11-dihydro-5H-pyrrolo[2,1-c][1,4]benzodiazepin-3-yl}[4-(1-pyrrolidinyl)-l-piperidinyl]methanone] | – | −5
Cc1ccccc1-c1ccc(C(=O)N2Cc3ccc(C(=O)NCCCn4ccnc4)n3Cc3ccccc32)cc1C [Example 124, 10-[(2,2′-Dimethyl[1,1′-biphenyl]-4-yl)carbonyl]-N-[3-(1H-imidazol-1-yl)propyl]-10,11-dihydro-5H-pyrrolo[2,1-c][1,4]benzodiazepine-3-carboxamide] | 21 | –
COc1cc(C(=O)N2Cc3ccc(C(=O)N4CC[C@@H](N(C)C)C4)n3Cc3ccccc32)ccc1-n1c(C)ccc1C [Example 322, [(3R)-3-(Dimethylamino)pyrrolidinyl]{10-[4-(2,5-dimethyl-1H-pyrrol-1-yl)-3-methoxybenzoyl]-10,11-dihydro-5H-pyrrolo[2,1-c][1,4]benzodiazepin-3-yl}methanone] | – | 24
O=C(c1ccc(-c2cccc3ccccc23)cc1Cl)N1Cc2ccc(C(=O)N3CCC[C@H]3CN3CCCC3)n2Cc2ccccc21 [Example 261, {10-[2-Chloro-4-(1-naphthyl)benzoyl]-10,11-dihydro-5H-pyrrolo[2,1-c][1,4]benzodiazepin-3-yl}[(2S)-2-(1-pyrrolidinylmethyl)pyrrolidinyl]methanone] | – | 18
COc1ccccc1-c1ccc(C(=O)N2Cc3ccc(C(=O)NCCCn4ccnc4)n3Cc3ccccc32)cc1 [Example 126, N-[3-(1H-Imidazol-1-yl)propyl]-10-[(2′-methoxy[1,1′-biphenyl]-4-yl)carbonyl]-10,11-dihydro-5H-pyrrolo[2,1-c][1,4]benzodiazepine-3-carboxamide] | 18 | –
COc1cccc(-c2cc(OC)c(C(=O)N3Cc4ccc(C(=O)N5CC[C@@H](N(C)C)C5)n4Cc4ccccc43)cc2Cl)c1 [Example 275, {10-[(6-Chloro-3,3′-dimethoxy[1,1′-biphenyl]-4-yl)carbonyl]-10,11-dihydro-5H-pyrrolo[2,1-c][1,4]benzodiazepin-3-yl}[(3R)-3-(dimethylamino)pyrrolidinyl]methanone] | – | 21
COC(=O)c1ccc2c(c1)N(C(=O)c1ccc(-c3ccccc3C(F)(F)F)c(C)c1)Cc1cccn1C2 [Example 26, Methyl 10-{[2-methyl-2′-trifluoromethyl-[1,1′-biphenyl]-4-yl]carbonyl}-10,11-dihydro-5H-pyrrolo[2,1-c][1.4]benzodiazepine-8-carboxylate] | – | 3

Second part, led by results:

inhibition at 0.1 µM [%] | SMILES | V2 % inhibition @ 100 nM [%]
16 | COc1ccccc1-c1ccc(C(=O)N2Cc3ccc(C(=O)NCCCn4ccnc4)n3Cc3ccccc32)cc1OC [Example 132, 10-[(2,2′-Dimethoxy[1,1′-biphenyl]-4-yl)carbonyl]-N-[3-(1H-imidazol-1-yl)propyl]-10,11-dihydro-5H-pyrrolo[2,1-c][1,4]benzodiazepine-3-carboxamide] | –
3 | COc1cc(C(=O)N2Cc3ccc(C(=O)N4CCC(N5CCCC5)CC4)n3Cc3ccccc32)ccc1-c1cccc2ccccc12 [Example 144, {10-[3-Methoxy-4-(1-naphthyl)benzoyl]-10,11-dihydro-5H-pyrrolo[2,1-c][1,4]benzodiazepin-3-yl}[4-(1-pyrrolidinyl)-1-piperidinyl]methanone] | –
1 | Cc1cc(C(=O)N2Cc3ccc(C(=O)NCCCn4ccnc4)n3Cc3ccccc32)ccc1-c1ccccc1C(F)(F)F [Example 135, N-[3-(1H-Imidazol-1-yl)propyl]-10-{[2-methyl-2′-(trifluoromethyl)[1,1′-biphenyl]-4-yl]carbonyl}-10,11-dihydro-5H-pyrrolo[2,1-c][1,4]benzodiazepine-3-carboxamide] | –
10 | COc1ccccc1-c1ccc(C(=O)N2Cc3ccc(C(=O)NCCN4CCCCC4)n3Cc3ccccc32)cc1 [Example 152, 10-[(2′-Methoxy[1,1′-biphenyl]-4-yl)carbonyl]-N-[2-(1-piperidinyl)ethyl]-10,11-dihydro-5H-pyrrolo[2,1-c][1,4]benzodiazepine-3-carboxamide] | –
29 | COc1ccccc1-c1ccc(C(=O)N2Cc3ccc(C(=O)N4CCC(N5CCCC5)CC4)n3Cc3ccccc32)cc1 [Example 140, {10-[(2′-Methoxy[1,1′-biphenyl]-4-yl)carbonyl]-10,11-dihydro-5H-pyrrolo[2,1-c][1,4]benzodiazepin-3-yl}[4-(1-pyrrolidinyl)-1-piperidinyl]methanone] | –
-5 | COc1cc(C(=O)N2Cc3ccc(C(=O)N4CCC(N5CCCC5)CC4)n3Cc3ccccc32)ccc1-c1ccccc1C [Example 142, {10-[(2-Methoxy-2′-methyl[1,1′-biphenyl]-4-yl)carbonyl]-10,11-dihydro-5H-pyrrolo[2,1-c][1,4]benzodiazepin-3-yl}[4-(1-pyrrolidinyl)-1-piperidinyl]methanone] | –
